Data on 16 compounds can be found in patent publication US5688943A, “Benzodiazepine derivatives useful as CCK-receptor antagonists” (Yamanouchi Pharmaceutical Co., Ltd., priority 1992, dated 1997).

The target of one experiment is T1, CCK-A receptors (Rattus norvegicus, UniProt P30551).
T1 construct: The pancreas of an SD rat was homogenized; from tissue; host or cells: SD rat pancreas membranes
T1 sequence (P30551 1-444): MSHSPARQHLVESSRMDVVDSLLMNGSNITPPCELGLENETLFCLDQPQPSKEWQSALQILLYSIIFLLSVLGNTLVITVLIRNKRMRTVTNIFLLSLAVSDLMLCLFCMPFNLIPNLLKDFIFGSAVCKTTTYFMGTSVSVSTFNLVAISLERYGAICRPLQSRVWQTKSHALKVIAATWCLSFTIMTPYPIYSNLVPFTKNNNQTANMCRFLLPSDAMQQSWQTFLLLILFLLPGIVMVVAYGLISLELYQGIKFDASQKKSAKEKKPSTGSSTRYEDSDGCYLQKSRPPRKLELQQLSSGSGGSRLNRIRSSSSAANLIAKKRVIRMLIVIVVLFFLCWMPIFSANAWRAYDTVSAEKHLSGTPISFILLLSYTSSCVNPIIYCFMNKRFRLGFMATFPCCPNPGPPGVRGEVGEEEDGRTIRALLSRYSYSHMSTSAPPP
Briefly: Measurement of binding affinity for CCK-A receptors ([3H]L-364,718, rat pancreas membranes). Further details: species or system SD rat. The following applies: [3H]L-364,718, 37° C., 30 minutes, read-out: Receptor binding affinity IC50, CCK-A. The protocol: Measurement of binding affinity for CCK-A receptors
The pancreas of an SD rat was homogenized in a 20-fold volume of 50 mM Tris-HCl buffer (pH 7.7) by the use of a Polytrone-type homogenizer, the homogenate was twice centrifuged for 10 minutes at 50000 g by the use of an ultra-centrifuge, the precipitate thus obtained was suspended in a 40-fold volume of 50 mM Tris-HCl buffer (containing 0.2% BSA, 5 mM MgCl2, 0.1 mg/ml bacitracin and 5 mM DTT; pH 7.7), and the suspension was stored at -80° C. until the membrane preparations were required.
The membrane preparations were then warmed to room temperature, diluted 1:10 with the buffer and incubated at 37° C. for 30 minutes in the presence of [^3 H]L-364,718 and the test compound then separated by suction filtration. Non-specific binding was determined in the presence of 1 μM L-364,718. The amount of labelled ligand bound to the receptor was measured by the use of a liquid scintillation counter; IC50 values were determined, being that concentration of test compound required to inhibit specific binding by 50%
(§1) A high affinity for the CCK-A receptor in a gastrin/CCK-B antagonist is thought to be undesirable as it may lead to side-effects such as cholestasis and gall stone formation during therapy. Therefore it is preferable for the therapeutic agent to be selective for the CCK-B receptor. This selectivity is expressed by the ratio IC50 (CCK-A)/IC50 (CCK-B); the higher the value of this ratio the better is the selectivity.

The target in a further experiment is T2, CCK-B receptors (Rattus norvegicus, UniProt P30553).
T2 construct: the whole brain was immediately excised from each of the rats and homogenized; from tissue; host or cells: SD rat whole brain membranes
Briefly: Measurement of binding affinity for CCK-B receptors ([125I]BH-CCK-8, rat brain membranes). Further details: species or system SD rats. The following applies: for IC50: rat brain membranes, [125I]BH-CCK-8, 25° C., 120 minutes, pH 6.5, read-out: Receptor binding affinity IC50, CCK-B; for A/B Ratio: ratio IC50 (CCK-A)/IC50 (CCK-B). The protocol: Measurement of binding affinity for CCK-B receptors
About 100 SD rats were decapitated without anaesthesia, the whole brain was immediately excised from each of the rats and homogenized in 10-fold volume of 0.32M aqueous solution of sucrose by the use of a Teflon-coated homogenizer, the homogenate thus obtained was centrifuged for ten minutes at 900 g by the use of a cooled centrifuge, and the supernatant was further centrifuged for 15 minutes at 11500 g. The precipitate thus obtained was dispersed in 50 mM Tris-HCl buffer (pH 7.4) containing 0.08% Triton X-100, this suspension was allowed to stand for 30 minutes and again centrifuged for 15 minutes at 11500 g, the precipitate thus obtained was washed twice with 5 mM Tris-HCl buffer and twice with 50 mM Tris-HCl buffer in that order with centrifugal separation, the washed precipitate was suspended in 50 mM Tris-HCl buffer, and the suspension thus obtained was stored at -80° C. until the membrane preparation was required.
The membrane preparations were warmed to room temperature, diluted with 10 mM HEPES buffer (containing 130 mM NaCl, 5 mM MgCl2, 1 mM EGTA and 0.25 mg/ml bacitracin; pH 6.5) and incubated at 25° C. for 120 minutes in the presence of [^125 I]BH-CCK-8 and the test compound, then separated by suction filtration. Non-specific binding was determined in the presence of 1 μM CCK-8. The amount of labelled ligand bound to the receptor was measured by the use of a γ-counter; IC50 values were determined, being that concentration of test compound required to inhibit specific binding by 50%.
as §1

Structures are written as SMILES.

As a reminder, the IC50 is the midpoint of a concentration-inhibition curve.

T2 sequence (P30553 whole entry): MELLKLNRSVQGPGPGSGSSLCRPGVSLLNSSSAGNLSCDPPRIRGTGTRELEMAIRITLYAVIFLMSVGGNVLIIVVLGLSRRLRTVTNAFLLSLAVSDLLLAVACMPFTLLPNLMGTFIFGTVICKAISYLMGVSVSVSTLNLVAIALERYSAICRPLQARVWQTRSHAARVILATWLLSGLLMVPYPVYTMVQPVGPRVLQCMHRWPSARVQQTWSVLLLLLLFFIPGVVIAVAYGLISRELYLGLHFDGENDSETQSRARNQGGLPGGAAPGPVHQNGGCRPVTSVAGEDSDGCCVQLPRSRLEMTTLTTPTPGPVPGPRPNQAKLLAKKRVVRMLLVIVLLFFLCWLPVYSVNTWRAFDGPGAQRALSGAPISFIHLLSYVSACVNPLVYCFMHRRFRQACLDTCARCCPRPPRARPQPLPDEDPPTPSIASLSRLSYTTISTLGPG

In the case of `O=C(O)Cc1cccc(NC(=O)NC2N=C(c3ccccc3)c3ccccc3N(CC(=O)C3CCCC3)C2=O)c1` (racemic) [Example 31, N-((3RS)-1-Cyclopentylcarbonylmethyl-2,3-dihydro-2-oxo-5-phenyl-1H-1,4-benzodiazepin-3-yl)-N'-(3-carboxymethylphenyl)urea], the figures for the half-inhibitory concentration (IC50) at CCK-A receptors and on CCK-B receptors were 3400 nM and 0.53 nM, respectively. On CCK-B receptors, the “A/B Ratio” value is listed as 6,400.
`Cc1cccc(NC(=O)N[C@@H]2N=C(c3ccccc3)c3ccccc3N(C[C@H](O)C3CCCC3)C2=O)c1` (racemic) [Example 12, N-((3RS)-1-((2RS)-2-Cyclopentyl-2-hydroxyethyl)-2,3-dihydro-2-oxo-5-phenyl-1H-1,4-benzodiazepin-3-yl)-N'-(3-methylphenyl)urea]: the IC50 on CCK-A receptors is greater than 10000 nM; on CCK-B receptors it was 1.4 nM. Moreover, the “A/B Ratio” value at CCK-B receptors is recorded as > 7,100.
As to `Cc1cccc(NC(=O)N[C@@H]2N=C(c3ccccc3)c3ccccc3N(C[C@@H](O)C3CCCC3)C2=O)c1` (racemic) [Example 13, N-((3RS)-1-((2SR)-2-Cyclopentyl-2-hydroxyethyl)-2,3-dihydro-2-oxo-5-phenyl-1H-1,4-benzodiazepin-3-yl)-N'-(3-methylphenyl)urea], the IC50 at CCK-A receptors is greater than 10000 nM. For the same compound, at CCK-B receptors, the IC50 worked out at 0.11 nM and the “A/B Ratio” value was > 91,000.
In the case of `Cc1cccc(NC(=O)N[C@@H]2N=C(c3ccccc3)c3ccccc3N(CC(=O)C3CCCC3)C2=O)c1` [Example 17, N-((3R)-1-Cyclopentylcarbonylmethyl-2,3-dihydro-2-oxo-5-phenyl-1H-1,4-benzodiazepin-3-yl)-N'-(3-methylphenyl)urea], the IC50 on CCK-A receptors came out at 2500 nM. At CCK-B receptors, the concentration for half-maximal inhibition (IC50) was 0.07 nM and the “A/B Ratio” value was 36,000.
`CC(C)(C)C(=O)CN1C(=O)C(NC(=O)Nc2cccc([N+](=O)[O-])c2)N=C(c2ccccc2)c2ccccc21` (racemic) [Example 45, N-((3RS)-1-tert-Butylcarbonylmethyl-2,3-dihydro-2-oxo-5-phenyl-1H-1,4-benzodiazepin-3-yl)-N'-(3-nitrophenyl)urea]: the half-maximal inhibitory concentration (IC50) on CCK-B receptors turned out to be 0.16 nM.
For the compound `Cc1cccc(NC(=O)NC2N=C(c3ccccn3)c3ccccc3N(CC(=O)C3CCCC3)C2=O)c1` (racemic) [Example 14, N-((3RS)-1-Cyclopentylcarbonylmethyl-2,3-dihydro-2-oxo-5-(2-pyridyl)-1H-1,4-benzodiazepin-3-yl)-N'-(3-methylphenyl)urea], on CCK-B receptors, the “A/B Ratio” value is given as 22,000.
With `Cc1cccc(NC(=O)NC2N=C(c3ccccc3)c3ccccc3N(CC(=O)C3(C)CCCCC3)C2=O)c1` (racemic) [Example 34, N-((3RS)-1-((1-Methylcyclohexyl)carbonylmethyl)-2,3-dihydro-2-oxo-5-phenyl-1H-1,4-benzodiazepin-3-yl)-N'-(3-methylphenyl)urea], the 50% inhibitory concentration (IC50) at CCK-A receptors was greater than 10000 nM. Moreover, the “A/B Ratio” value on CCK-B receptors is on record as > 26,000.
With `O=C(Nc1cccc(C(=O)O)c1)N[C@@H]1N=C(c2ccccc2)c2ccccc2N(CC(=O)C2CCCC2)C1=O` [Example 23, N-((3R)-1-Cyclopentylcarbonylmethyl-2,3-dihydro-2-oxo-5-phenyl-1H-1,4-benzodiazepin-3-yl)-N'-(3-carboxyphenyl)urea], the 50% inhibitory concentration (IC50) on CCK-A receptors is 870 nM. Besides, on CCK-B receptors, the half-inhibitory concentration (IC50) was determined as 0.08 nM and the “A/B Ratio” value was 11,000.
For `CC(=O)N1CCC[C@H]1C(=O)CN1C(=O)C(NC(=O)Nc2cccc(C)c2)N=C(c2ccccc2)c2ccccc21` (mixture of isomers) [Example 9, N-((3RS)-1-((2S)-1-Acetyl-2-pyrrolidylcarbonylmethyl)-2,3-dihydro-2-oxo-5-phenyl-1H-1,4-benzodiazepin-3-yl)-N'-(3-methylphenyl)urea], in that order: greater than 10000 nM, 7.3 nM and > 1,400.
For `NC(=O)c1cccc(NC(=O)NC2N=C(c3ccccc3)c3ccccc3N(CC(=O)C3CCCC3)C2=O)c1` (racemic) [Example 35, N-((3RS)-1-Cyclopentylcarbonylmethyl-2,3-dihydro-2-oxo-5-phenyl-1H-1,4-benzodiazepin-3-yl)-N'-(3-carboxamidophenyl)urea], in that order: 1900 nM, 1.1 nM and 1,700.
For `Cc1cccc(NC(=O)N[C@@H]2N=C(c3ccccc3)c3ccccc3N(C[C@H](O)C3CCCC3)C2=O)c1` [Example 19, N-((3R)-1-((2R)-2-Cyclopentyl-2-hydroxyethyl)-2,3-dihydro-2-oxo-5-phenyl-1H-1,4-benzodiazepin-3-yl)-N'-(3-methylphenyl)urea], in that order: 1 nM, 0.92 nM and 1,200.
Regarding `O=C(Nc1cccc([N+](=O)[O-])c1)NC1N=C(c2ccccc2)c2ccccc2N(CC(=O)C2CCCC2)C1=O` (racemic) [Example 44, N-((3RS)-1-Cyclopentylcarbonylmethyl-2,3-dihydro-2-oxo-5-phenyl-1H-1,4-benzodiazepin-3-yl)-N'-(3-nitrophenyl)urea], the concentration for half-maximal inhibition (IC50) at CCK-A receptors came to 1600 nM. Moreover, on CCK-B receptors, the IC50 is 0.17 nM and the “A/B Ratio” value is 9,400.
Take `Cc1cccc(NC(=O)NC2N=C(c3ccccc3)c3ccccc3N(CC(=O)CC3CCCCC3)C2=O)c1` (racemic) [Example 32, N-((3RS)-1-Cyclohexylmethylcarbonylmethyl-2,3-dihydro-2-oxo-5-phenyl-1H-1,4-benzodiazepin-3-yl)-N'-(3-methylphenyl)urea]: the 50% inhibitory concentration (IC50) at CCK-A receptors came out at 480 nM. Moreover, the “A/B Ratio” value at CCK-B receptors is recorded as 1,700.
Turning to `COc1cccc(NC(=O)NC2N=C(c3ccccc3)c3ccccc3N(CC(=O)C3CCCC3)C2=O)c1` (racemic) [Example 42, N-((3RS)-1-Cyclopentylcarbonylmethyl-2,3-dihydro-2-oxo-5-phenyl-1H-1,4-benzodiazepin-3-yl)-N'-(3-methoxyphenyl)urea], the IC50 at CCK-A receptors was found to be 360 nM; on CCK-B receptors, 0.07 nM. For the same compound, the “A/B Ratio” value on CCK-B receptors is reported as 5,100.
For `O=C(Nc1cccc(C(=O)O)c1)NC1N=C(c2ccccn2)c2ccccc2N(CC(=O)C2CCCC2)C1=O` (racemic) [Example 22, N-((3RS)-1-Cyclopentylcarbonylmethyl-2,3-dihydro-2-oxo-5-(2-pyridyl)-1H-1,4-benzodiazepin-3-yl)-N'-(3-carboxyphenyl)urea], in that order: greater than 10000 nM, 3.5 nM and > 2,900.
The corresponding values for `O=C(Nc1cccc(C(=O)O)c1)N[C@@H]1N=C(c2ccccc2)c2ccccc2N(CC(O)C2CCCC2)C1=O` (mixture of isomers) [Example 24, N-((3R)-1-((2RS)-2-Cyclopentyl-2-hydroxyethyl)-2,3-dihydro-2-oxo-5-phenyl-1H-1,4-benzodiazepin-3-yl)-N'-(3-carboxyphenyl)urea] are greater than 10000 nM, 0.97 nM and > 10,000.
